Measured values taken from patent US9855310B2, “Coix seed oil containing 8 triglycerides, and pharmaceutical preparation and use thereof” (ZHEJIANG KANGLAITE GROUP CO., LTD., priority 2014, dated 2018).
Converted amounts (≈) assume the structure as drawn. Counter-ions that a name gives are not always drawn. Marks after values point to notes of the source that are not given here.

How the values were obtained:
[1] = test system: QGY human hepatoma; assay: Growth of QGY human hepatoma transplanted in nude mice; conditions: ip × 7qd
Experimental: A549 Human lung cancer cells cryopreserved in liquid nitrogen were recovered, and incubated in a 37 incubator under 5% CO2. After being subcultured, cells in a logarithmic growth stage were distributed with normal saline to be a cell suspension in a concentration of 1-2×10^7 cells/ml. The cell suspension was inoculated into BALB/C nude mice (SPF grade, 18-20 g, 6 weeks old, male) subcutaneously at right axillary. The tumor tissues were aseptically taken from the 2nd generation of xenograft model of A549 human lung cancer in a vigorous growth stage and cut into small uniform pieces in the size of 1-2 mm^3. The right axillary of each nude mouse was inoculated one piece subcutaneously via a trocar. When the inoculated tumor could be touched, the mice were randomly grouped and administered according to the experimental design program. All contacted feed, padding, cages and equipment, etc., should be autoclaved prior to use. The nude mice were fed in a laminar flow rack. Tumor sizes and animal weights were observed and tested dynamically. Mice in each group were sacrificed 3 weeks later or so, and tumors were surgically removed and weighed.
(§3) Q value of antitumor effect in drug combination was calculated according to Jin's formula: Q=Ea+b/(Ea+Eb−Ea×Eb) Wherein Ea+b=the tumor inhibition rate of drug combination, Ea or Eb=the tumor inhibition rate of drug A or drug B, respectively.
QGY human hepatoma cells cryopreserved in liquid nitrogen were recovered, and incubated in a 37 incubator under 5% CO2.

[2] = test system: A549 human lung cancer; assay: Growth of A549 human lung cancer transplanted in nude mice; assay type: in vivo, BALB/C nude mice; conditions: ip × 7qd
Experimental: The injection of the invention (10 g/100 ml), Cisplatin (Qilu Pharmaceutical Co., Ltd), blank fat emulsion and normal saline

[3] = test system: S180 sarcoma; assay: S180 sarcoma transplanted in mice; assay type: in vivo, Kunmin mice; conditions: ip × 2(1, 3)
Experimental: The injection of the invention (10 g/100 ml), Cyclophosphamide (CTX), Mitoxantrone (DHAD), Mitomycin (MMC) and normal saline
Each mouse was inoculated with 0.2 ml of the suspension subcutaneously at the right axilla, and the mice were grouped randomly. The administration began from the next day according to the dosage program in Table 7. […] Weights of tumor were compared and inhibition rates were calculated for each group.

[4] = test system: Bcap-37 human breast cancer; assay: Bcap-37 human breast cancer transplanted in nude mice; assay type: in vivo, BALB/C nude mice; conditions: 25 mg/kg, ip × 1
Experimental: The injection of the invention (10 g/100 ml), Docetaxel injection (Taxotere, 20 mg/vial) and normal saline
Bcap-37 human breast cancer: inoculated in BALB/C nude mice (SPF grade), 18-20 g, female
(§1) Tumor blocks of well-grown Bcap-37 human breast cancer were homogenized in normal saline to obtain cell suspensions in the concentration of 1-2×10^7 cells/ml. Each nude mouse was inoculated with 0.2 ml of the suspension at the right axilla subcutaneously, and the mice were grouped randomly. The administration began from the 7th day after the inoculation. 20 Days after the inoculation, the mice were sacrificed. Tumor blocks were taken out and weighed. Differences of tumor weight between each experimental group and the control group were compared, and tumor inhibition rates and Q values were calculated.

[5] = test system: PANC-1 human pancreatic cancer; assay: PANC-1 human pancreatic cancer transplanted in nude mice; assay type: in vivo, BALB/C nude mice; conditions: 60 mg/kg, iv × 1
Experimental: as §3
Tumor blocks of well-grown PANC-1 human pancreatic cancer were inoculated subcutaneously in 4-week-old female BALB/C nude mice. The nude mice were grouped randomly and administered. One week after the end of the administration, the mice were sacrificed and dissected. Tumor blocks were taken out and weighed. Differences of tumor weight between each experimental group and the control group were compared and the tumor inhibition rates were calculated.

[6] = test system: FC-3M human prostate cancer; assay: FC-3M human prostate cancer transplanted in nude mice; assay type: in vivo, BALB/C nude mice; conditions: iv × 1
Experimental: The injection of the invention (10 g/100 ml), Leuprolide acetate (Lupron) and normal saline
Tumor blocks of well-grown FC-3M human prostate cancer were homogenized in normal saline (1:4). Each nude mouse was inoculated with 0.2 ml of the suspension at the right axilla subcutaneously, and the mice were grouped randomly. The administration began from the next day. 21 Days after the inoculation, the mice were sacrificed. Tumor blocks were taken out and weighed. Differences of tumor weight between each experimental group and the control group were compared and the tumor inhibition rates were calculated.

[7] = test system: SMMC-7721 (human hepatic cancer cells); assay: Inhibition on human tumor cell lines in MTT method in vitro; assay type: cell-based
Description: (§2) (1) Cell lines: PANC-1 (human pancreatic cancer cells), SKOV3 (human ovarian cancer cells), MCF-7 (human breast cancer cells), Bcap-37 (human breast cancer cells), SMMC-7721 (human hepatic cancer cells), HepG-2 (human hepatic cancer cells), A549 (human lung cancer cells) and H460 (human lung cancer cells), storaged and passaged maintainably in Research and Evaluation Center for Pharmacology, Shanghai Institute of Pharmaceutical Industry; The inhibition effects of samples on the above-mentioned cell lines were detected by using MTT method. The specific procedures were as follows: (1) Cell culture: (a) Storaged cells were taken out from the liquid nitrogen, thawed quickly in a 37 water bath, then aseptically transferred into 6 ml of cellular medium in a 10 ml centrifugal tube, and centrifuged at 1000 rpm for 5 min. The supernatant was discarded, then the precipitated cells were re-suspensed in 5-6 ml cellular media by pipetting and transferred into a flask in a 37 incubator for cell culture; (b) Next day, the flask was taken out from the incubator and the used medium was discarded, then the cells were incubated in 5-6 ml fresh medium in the 37 incubator; (c) On the third day, the flask was taken out from the incubator and the used medium was discarded, then 2-3 ml of PBS (pH7.4) was added into the flask with rocking for cleaning it and the used PBS was discarded. […] The flask was capped and placed in a 37 incubator for about 3 min, and the separation of cells from the flask wall was observed under the microscope. 2 ml of cellular medium was added and cells were separated completely from the flask wall by pipetting, then the cell suspension was transferred into 2 separate clean flasks, each containing 5-6 ml medium. The cell suspension was well-distributed by pipetting, then the flask was placed in a 37 incubator. (d) Step (c) was repeated every other day. In the whole cultivation process, adherent cells were not allowed to grow too dense and suspension cells were always maintained at a logarithmic growth stage. (2) Preparation of the sample and the control: A proper amount of sample of Coix seed oil (oil of Job's tears seed) was dissolved in DMSO to obtain a solution in a concentration of 10 mg/ml. […] The correspondingly diluted DMSO solutions, as controls, were added into the wells of the microplate. (4) Cells in a logarithmic growth stage were trypsinized and washed, then re-suspended in the medium containing 10% calf serum. The number of living cells was counted in Trypan blue dye exclusion method and cell suspensions were adjusted into a density of 2×10^5 cell/ml. (5) The cell-contained 96 well flat-bottom microplate was placed in a 37 incubator and cells were incubated under 5% CO2 for 48 h. (6) 20 μl of 5 mg/ml MTT solution was added into each well and cells were incubated continuously in the incubator for 3-4 h. (7) 100 μl of crystal dissolving solution was added into each well and cells were incubated continuously in the incubator overnight, so as to dissolve the resulted formazan crystals sufficiently. Then, the absorbance value was measured at 570 nm for each well. […] The calculation formula was as follows: (1−mean absorbance of experimental wells/mean absorbance of control wells)×100%

[8] = test system: A549 (human lung cancer cells); assay: as above; assay type: cell-based
Description: as §2

[9] = test system: MCF-7 (human breast cancer cells); assay: as above; assay type: cell-based; conditions: MCF7
Description: as §2

[10] = test system: Bcap-37 (human breast cancer cells); assay: as above; assay type: cell-based; conditions: Bcap37
Description: as §2

[11] = test system: SKOV3 (human ovarian cancer cells); assay: as above; assay type: cell-based; conditions: SK-OV-3
Description: as §2

[12] = test system: PANC-1 (human pancreatic cancer cells); assay: as above; assay type: cell-based
Description: as §2

[13] = test system: HepG-2 (human hepatic cancer cells); assay: as above; assay type: cell-based; conditions: HepG2
Description: as §2

[14] = test system: H460 (human lung cancer cells); assay: as above; assay type: cell-based; conditions: NCI-H460
Description: as §2

[15] = test system: MDA-MB-435 human breast cancer; assay: MDA-MB-435 human breast cancer transplanted in nude mice; assay type: in vivo, BALB/C nude mice; conditions: 50 mg/kg, ip × 1
Experimental: as §1, with “Each” for “Tumor blocks of well-grown Bcap-37 human breast cancer were homogenized in normal saline to obtain cell suspensions in the concentration of 1-2×10^7 cells/ml. Each”, “18” for “20”

[16] = test system: LM-3 human hepatoma; assay: LM-3 human hepatoma transplanted in nude mice; conditions: ip × 7qd
Description: When the inoculated tumor could be touched, the mice were randomly grouped and administered according to the experimental design program. All contacted feed, padding, cages and equipment, etc., should be autoclaved prior to use. The nude mice were fed in a laminar flow rack. Tumor sizes and animal weights were observed and tested dynamically. Mice in each group were sacrificed 3 weeks later or so, and tumors were surgically removed and weighed.
LM-3 human hepatoma cells cryopreserved in liquid nitrogen were recovered, and incubated in a 37 incubator under 5% CO2. Other steps were the same as mentioned in 2-B.

[17] = test system: W256 cancer sarcoma; assay: W256 cancer sarcoma transplanted in rats; assay type: in vivo, Wistar rats
Experimental: The injection of the invention (10 g/100 ml), Cyclophosphamide (CTX) and normal saline
W256 cancer sarcoma: inoculated in Wistar rats, 50-60 g, female
Ascitic fluid of rats with well-grown W256 cancer sarcoma was diluted with normal saline to obtain a cell suspension of about 1-2×10^7 cells/ml. Each rat was inoculated with 0.2 ml of the suspension at the right axilla subcutaneously. The rats were grouped randomly next day and began administration. Two weeks later, animals were sacrificed and dissected to take out the tumor block. Weights of tumor were compared between each experimental group and the control group and tumor inhibition rates were calculated.

Compound: COc1cccc2c1C(=O)c1c(O)c3c(c(O)c1C2=O)C[C@@](O)(C(=O)CO)C[C@@H]3O[C@H]1C[C@H](N)[C@H](O)[C@H](C)O1 [Adriamycin]
- Inhibition rate % ([1]; 1 mg/kg): 35.48%
- Weight of animal start/end: end ([1]; 1 mg/kg): 24.5
- Weight of animal start/end: start ([1]; 1 mg/kg): 21.5
- Weight of tumor (g) x ± SD ([1]; 1 mg/kg): 0.742 ± 0.19 g
- Inhibition rate % ([1]; 2 mg/kg): 68.87%
- Weight of animal start/end: end ([1]; 2 mg/kg): 23.2
- Weight of tumor (g) x ± SD ([1]; 2 mg/kg): 0.358 ± 0.12 g

Compound: N.N.[Cl][Pt][Cl] [Cisplatin]
- Inhibition rate % ([2]; 1 mg/kg): 41.07%
- Weight of animal (g) start/end: end ([2]; 1 mg/kg): 24.5 g
- Weight of animal (g) start/end: start ([2]; 1 mg/kg): 20.3 g
- Weight of tumor (g) x ± SD ([2]; 1 mg/kg): 0.772 ± 0.15 g
- Inhibition rate % ([2]; 2 mg/kg): 86.03%
- Weight of animal (g) start/end: end ([2]; 2 mg/kg): 23.6 g
- Weight of animal (g) start/end: start ([2]; 2 mg/kg): 20.3 g
- Weight of tumor (g) x ± SD ([2]; 2 mg/kg): 0.183 ± 0.05 g

Compound: O=C1c2c(O)ccc(O)c2C(=O)c2c(NCCNCCO)ccc(NCCNCCO)c21 [DHAD, Mitoxantrone]
- Inhibition rate % ([3]; 2 mg/kg): 51.0%
- Weight of tumor (g) x ± SD ([3]; 2 mg/kg): 0.77 ± 0.19 g

Compound: CC(=O)O[C@@]12CO[C@@H]1C[C@H](O)[C@@]1(C)C(=O)[C@H](O)C3=C(C)[C@@H](OC(=O)[C@H](O)[C@@H](NC(=O)OC(C)(C)C)c4ccccc4)C[C@@](O)([C@@H](OC(=O)c4ccccc4)[C@H]21)C3(C)C [Docetaxel]
- Inhibition rate % [4]: 56.80%
- Weight of tumor (g) x ± SD [4]: 1.27 ± 0.88 g

Compound: Nc1ccn([C@@H]2O[C@H](CO)[C@@H](O)C2(F)F)c(=O)n1 [Gemcitabine, gemcitabine hydrochloride]
- Inhibition rate % [5]: 23.04%
- Weight of tumor (g) x ± SD [5]: 0.1426 ± 0.078 g

Compound: CCNC(=O)[C@@H]1CCCN1C(=O)[C@H](CCCNC(=N)N)NC(=O)[C@H](CC(C)C)NC(=O)[C@@H](CC(C)C)NC(=O)[C@H](Cc1ccc(O)cc1)NC(=O)[C@H](CO)NC(=O)[C@H](Cc1c[nH]c2ccccc12)NC(=O)[C@H](Cc1c[nH]cn1)NC(=O)[C@@H]1CCC(=O)N1 [Lupron, Leuprolide acetate]
- Inhibition rate % ([6]; 0.75 ml/kg): 35.1%
- Weight of tumor (g) x ± SD ([6]; 0.75 ml/kg): 0.98 ± 0.26 g
- Inhibition rate % ([6]; 1.5 ml/kg): 47.68%
- Weight of tumor (g) x ± SD ([6]; 1.5 ml/kg): 0.79 ± 0.16 g

Compound: CO[C@@]12[C@H](COC(N)=O)C3=C(C(=O)C(C)=C(N)C3=O)N1C[C@@H]1N[C@@H]12 [MMC, Mitomycin]
- Inhibition rate % ([3]; 1.5 mg/kg): 39.5%
- Weight of tumor (g) x ± SD ([3]; 1.5 mg/kg): 0.95 ± 0.16 g

Compound: CC(=O)O[C@H]1C(=O)[C@@]2(C)[C@H]([C@H](OC(=O)c3ccccc3)[C@]3(O)C[C@H](OC(=O)[C@H](O)[C@@H](NC(=O)c4ccccc4)c4ccccc4)C(C)=C1C3(C)C)[C@]1(OC(C)=O)CO[C@@H]1C[C@@H]2O [Taxol, Paclitaxel]
- IC50 [7]: 0.41 mg/L (≈ 0.48 µM)
- IC50 [8]: 0.46 mg/L (≈ 0.539 µM)
- IC50 [9]: 0.18 mg/L (≈ 0.211 µM)
- IC50 [10]: 0.28 mg/L (≈ 0.328 µM)
- IC50 [11]: 0.22 mg/L (≈ 0.258 µM)
- IC50 [12]: 0.44 mg/L (≈ 0.515 µM)
- IC50 [13]: 0.45 mg/L (≈ 0.527 µM)
- IC50 [14]: 0.49 mg/L (≈ 0.574 µM)
- Inhibition rate % [15]: 62.87%

Compound: O=P1(N(CCCl)CCCl)NCCCO1 (centres unmarked) [cyclophosphamide, Cyclophosphamide]
- Inhibition rate % ([16]; 15 mg/kg): 27.21%
- Weight of animal start/end: end ([16]; 15 mg/kg): 25.1
- Weight of animal start/end: start ([16]; 15 mg/kg): 20.6
- Weight of tumor (g) x ± SD ([16]; 15 mg/kg): 1.110 ± 0.11 g
- Inhibition rate % ([16]; 30 mg/kg): 84.13%
- Weight of animal start/end: end ([16]; 30 mg/kg): 25.6
- Weight of animal start/end: start ([16]; 30 mg/kg): 20.4
- Weight of tumor (g) x ± SD ([16]; 30 mg/kg): 0.242 ± 0.11 g
- Weight of tumor (g) x ± SD ([17]; 10 mg/kg, iv × 2(3, 5)): 2.07 ± 1.11 g
- Inhibition rate % ([17]; 10 mg/kg, iv × 2(3, 5), listed as CTX): 38.6%
- Inhibition rate % ([17]; 30 mg/kg, iv × 7): 88.1** %
- Weight of tumor (g) x ± SD ([17]; 30 mg/kg, iv × 7): 0.40 ± 0.15 g
- Weight of tumor (g) x ± SD ([3]; 30 mg/kg): 0.95 ± 0.22 g
- Inhibition rate % ([3]; 30 mg/kg, listed as CTX): 39.5%
